The subject of assay [1] is gli-luciferase activity (Hh pathway) in TMHh12 cells. The assay can be described thus: "IC50 shift" gli-luciferase reporter assay in TMHh12 cells with a small molecule Smo agonist. Type of assay: cell-based, mouse. How it is done:
TM3 cells (mouse) transfected with a new proprietary reporter construct (pTA-8xGli-Luc). The pTA-8xGli-Luc reporter produces approx. 4 fold more luciferase activity than classical 8xGli-LUC. A highly responsive stable clone has been selected (TMHh12) with >10-fold signal/noise ratio and <10% CV in 384 well format.
“IC50 shift” assays in TMHh12 cells. IC50 for antagonism of gli-luciferase activity was tested in the presence of increasing concentrations of a small molecule agonist which binds to Smo with 1 nM affinity and activates the Hh pathway.
Table 1 lists the IC50 of antagonists determined in the presence of different (1 nM and 25 nM) concentrations of a small agonist of Smoothened.

Another assay addresses Smoothened (Homo sapiens, UniProt Q99835). The assay can be described thus: Smo binding assay, displacement of a small molecule agonist of Smoothened, filter binding format. The text has this:
A Smo binding assay was developed using radio-labeled smoothened agonist for compound competition.
Table 1, infra; lists the IC50 for displacement of a small molecule agonist of Smoothened determined in a filter binding format.

Where [2] appears, read: Mus musculus, TMHh12, TMHh12 cells, 1 nM small molecule Smo agonist, read-out: Gli_luc (1 nM Smo agonist) IC50.
The mark [3] stands for this setting: Mus musculus, TMHh12, TMHh12 cells, 25 nM small molecule Smo agonist, read-out: Gli_luc (25 nM Smo agonist) IC50.

Where two headings read alike, the source gives them in different places.

Chain of Smoothened (Q99835 28-787): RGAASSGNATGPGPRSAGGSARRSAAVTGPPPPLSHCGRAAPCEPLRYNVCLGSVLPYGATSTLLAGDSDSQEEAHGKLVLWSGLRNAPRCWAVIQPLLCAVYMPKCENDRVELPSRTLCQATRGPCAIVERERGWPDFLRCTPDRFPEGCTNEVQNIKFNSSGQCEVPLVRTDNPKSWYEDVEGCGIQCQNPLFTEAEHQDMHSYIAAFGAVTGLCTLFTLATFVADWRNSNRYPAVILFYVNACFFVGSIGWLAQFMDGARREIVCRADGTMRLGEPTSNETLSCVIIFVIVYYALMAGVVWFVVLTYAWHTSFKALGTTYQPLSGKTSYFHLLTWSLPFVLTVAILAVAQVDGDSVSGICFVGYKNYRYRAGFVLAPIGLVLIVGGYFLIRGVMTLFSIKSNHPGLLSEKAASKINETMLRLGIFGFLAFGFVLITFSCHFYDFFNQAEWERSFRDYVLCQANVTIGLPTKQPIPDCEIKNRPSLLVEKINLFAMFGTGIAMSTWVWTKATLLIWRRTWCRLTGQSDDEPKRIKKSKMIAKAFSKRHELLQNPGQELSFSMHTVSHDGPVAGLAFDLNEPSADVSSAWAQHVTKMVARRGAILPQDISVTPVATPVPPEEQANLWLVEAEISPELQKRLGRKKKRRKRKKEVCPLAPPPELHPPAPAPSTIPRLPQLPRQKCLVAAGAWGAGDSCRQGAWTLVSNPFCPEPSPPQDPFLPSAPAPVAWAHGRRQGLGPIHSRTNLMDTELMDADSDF

With `Cc1csc(CN[C@H]2Cc3ccc(NC(=O)c4cccc(C)c4-c4ccc(C(F)(F)F)cc4)cc3C2)n1` [Example 5, 6-Methyl-4′-trifluoromethyl-biphenyl-2-carboxylic acid {(S)-2-[(4-methyl-thiazol-2-ylmethyl)-amino]-indan-5-yl}-amide], the concentration for half-maximal inhibition (IC50) in assay [1] (setting [2]) is less than 5 nM; in assay [1] (setting [3]), 139 nM; at Smoothened, 3 nM.
The matching figures for `Cc1cccc(C(=O)Nc2ccc3c(c2)C[C@@H](NCc2cccs2)C3)c1-c1ccc(C(F)(F)F)cc1` [Example 7]: less than 5 nM, 141 nM and 14 nM.
In the case of `Cc1nc(CN[C@H]2Cc3ccc(NC(=O)c4cccc(C)c4-c4ccc(C(F)(F)F)cc4)cc3C2)cs1` [Example 9], the IC50 in assay [1] (setting [2]) worked out at 39 nM; in assay [1] (setting [3]), 876 nM.
Turning to `Cc1cccc(C(=O)Nc2ccc3c(c2)C[C@@H](NCc2scnc2C)C3)c1-c1ccc(C(F)(F)F)cc1` [Example 10], the IC50 was found to be 290 nM in assay [1] (setting [2]), 1340 nM in assay [1] (setting [3]) and 137 nM at Smoothened.
The matching figures for `Cc1cccc(C(=O)Nc2ccc3c(c2)C[C@@H](NCc2ccco2)C3)c1-c1ccc(C(F)(F)F)cc1` [Example 11]: less than 5 nM, 371 nM and 14 nM.
The matching figures for `Cc1ccc(CN[C@H]2Cc3ccc(NC(=O)c4cccc(C)c4-c4ccc(C(F)(F)F)cc4)cc3C2)o1` [Example 12]: less than 5 nM, 141 nM and 4 nM.
With `Cc1cccc(C(=O)Nc2ccc3c(c2)C[C@@H](NCc2ccc(Cl)o2)C3)c1-c1ccc(C(F)(F)F)cc1` [Example 14], the IC50 is less than 5 nM in assay [1] (setting [2]), 37 nM in assay [1] (setting [3]) and 1 nM at Smoothened.
Take `Cc1cccc(C(=O)Nc2ccc3c(c2)C[C@@H](NCc2cccn2C)C3)c1-c1ccc(C(F)(F)F)cc1` [Example 15]: the results for the half-maximal inhibitory concentration (IC50) (in assay [1] (setting [2]); in assay [1] (setting [3]); at Smoothened) were less than 5 nM, 479 nM and 18 nM, respectively.
For the molecule `Cc1cccc(C(=O)Nc2ccc3c(c2)C[C@@H](NCc2cncn2C)C3)c1-c1ccc(C(F)(F)F)cc1` [Example 16], the IC50 stood at 592 nM in assay [1] (setting [2]) and 3700 nM in assay [1] (setting [3]).
In the case of `Cc1cccc(C(=O)Nc2ccc3c(c2)C[C@@H](NCc2ncc[nH]2)C3)c1-c1ccc(C(F)(F)F)cc1` [Example 17], the IC50 amounted to 1370 nM in assay [1] (setting [2]) and 15500 nM in assay [1] (setting [3]).
The like results for `Cc1cccc(C(=O)Nc2ccc3c(c2)C[C@@H](NCc2nccn2C)C3)c1-c1ccc(C(F)(F)F)cc1` [Example 18] were, in that order, 39 nM and 876 nM.
For the molecule `Cc1cccc(C(=O)Nc2ccc3c(c2)C[C@@H](NCc2ccncc2)C3)c1-c1ccc(C(F)(F)F)cc1` [Example 20], the IC50 in assay [1] (setting [2]) came to 94 nM; in assay [1] (setting [3]), 964 nM; at Smoothened it was 151 nM.
With `COc1ccc(OC)c(CN[C@H]2Cc3ccc(NC(=O)c4cccc(C)c4-c4ccc(C(F)(F)F)cc4)cc3C2)c1` [Example 21], the results for the IC50 (in assay [1] (setting [2]); in assay [1] (setting [3]); on Smoothened) were 254 nM, 646 nM and 1 nM, respectively.
The like results for `CC(=O)Nc1ccc(CN[C@H]2Cc3ccc(NC(=O)c4cccc(C)c4-c4ccc(C(F)(F)F)cc4)cc3C2)cc1` [Example 22] were, in that order, 456 nM, 3260 nM and 444 nM.
For `Cc1cccc(C(=O)Nc2ccc3c(c2)C[C@H](NCc2ccccc2)C3)c1-c1ccc(C(F)(F)F)cc1` [Example 27], the results for the IC50 in assay [1] (setting [2]) and in assay [1] (setting [3]) were 12 nM and 605 nM, respectively.
`Cc1cccc(C(=O)Nc2ccc3c(c2)C[C@@H](NCC2CCOC2)C3)c1-c1ccc(C(F)(F)F)cc1` (stereo partly shown) [Example 33]: the IC50 in assay [1] (setting [2]) worked out at 4530 nM; in assay [1] (setting [3]) it was 16400 nM.
For `Cc1cc(C)c(-c2ccc(C(F)(F)F)cc2)c(C(=O)Nc2ccc3c(c2)CC(NCc2ccsc2)C3)c1` (stereo not shown) [Example 35], the IC50 on Smoothened amounted to 208 nM.
Take `O=C(Nc1ccc2c(c1)CC(NCc1ccccn1)C2)c1cccc(C(F)(F)F)c1-c1ccc(C(F)(F)F)cc1` (stereo not shown) [Example 37]: the IC50 is 2980 nM in assay [1] (setting [2]) and 11000 nM in assay [1] (setting [3]).
The like results for `O=C(Nc1ccc2c(c1)CCC2NCc1cccs1)c1ccccc1-c1ccc(C(F)(F)F)cc1` (stereo not shown) [Example 39] were, in that order, 686 nM and 3720 nM.
Turning to `COC(=O)C1(CNC2Cc3ccc(NC(=O)c4ccccc4-c4ccc(C(F)(F)F)cc4)cc3C2)CCCC1` (stereo not shown) [Example 42], the IC50 in assay [1] (setting [2]) is 2580 nM.
Regarding `O=C(Nc1ccc2c(c1)C[C@@H](NCc1ccccn1)C2)c1cccc(C(F)(F)F)c1-c1ccc(C(F)(F)F)cc1` [Example 46], the IC50 in assay [1] (setting [2]) worked out at 831 nM; in assay [1] (setting [3]) it was 3850 nM.
In the case of `O=C(Nc1ccc2c(c1)CC(NCc1ccccn1)C2)c1cccc(C(F)(F)F)c1-c1ccc(C(F)(F)F)cc1` (stereo not shown) [Example 47], the IC50 in assay [1] (TMHh12 cells, 1 nM small molecule Smo agonist, read-out: Gli_luc (1 nM Smo agonist) IC50) is 1570 nM; in assay [1] (TMHh12 cells, 25 nM small molecule Smo agonist, read-out: Gli_luc (25 nM Smo agonist) IC50), 5960 nM.
Take `Cc1cccc(C(=O)Nc2ccc3c(c2)CC(NCc2cccs2)C3)c1-c1ccc(C(F)(F)F)cc1` (stereo not shown) [Example 52]: the IC50 was 40 nM in assay [1] (setting [2]) and 598 nM in assay [1] (setting [3]).
The matching figures for `Cc1cccc(C(=O)Nc2ccc3c(c2)CC(NCc2ccccc2)C3)c1-c1ccc(C(F)(F)F)cc1` (stereo not shown) [Example 55]: 91 nM and 995 nM.
The like results for `Cc1cccc(C(=O)Nc2ccc3c(c2)CC(NCc2nccs2)C3)c1-c1ccc(C(F)(F)F)cc1` (stereo not shown) [Example 72] were, in that order, 38 nM and 667 nM.
The matching figures for `Cc1cccc(C(=O)Nc2ccc3c(c2)CC(NC(=O)c2ccccc2)C3)c1-c1ccc(C(F)(F)F)cc1` (stereo not shown) [Example 76]: 772 nM and 1250 nM.
On to `CN(C)CC(=O)NC1Cc2ccc(NC(=O)c3ccccc3-c3ccc(C(F)(F)F)cc3)cc2C1` (stereo not shown) [Example 77], for which the IC50 in assay [1] (setting [2]) was 1410 nM; in assay [1] (setting [3]), 12400 nM.
For `O=C(COc1ccccc1)NC1Cc2ccc(NC(=O)c3ccccc3-c3ccc(C(F)(F)F)cc3)cc2C1` (stereo not shown) [Example 78], in assay [1] (setting [2]), the IC50 turned out to be 1890 nM.
For the molecule `COc1cccc(C(=O)Nc2ccc3c(c2)CC(NC(=O)c2ccccc2)C3)c1-c1ccc(C(F)(F)F)cc1` (stereo not shown) [Example 79], the half-maximal inhibitory concentration (IC50) in assay [1] (setting [2]) is 1330 nM.
`Cc1cccc(C(=O)Nc2ccc3c(c2)C[C@H](NC(=O)c2ccno2)C3)c1-c1ccc(C(F)(F)F)cc1` [Example 80]: the IC50 in assay [1] (setting [2]) was 3270 nM.
For the molecule `CCOC(=O)NC1Cc2ccc(NC(=O)c3ccccc3-c3ccc(C(F)(F)F)cc3)cc2C1` (stereo not shown) [Example 81], the 50% inhibitory concentration (IC50) in assay [1] (setting [2]) is 1330 nM.
Take `CCOC(=O)N[C@H]1Cc2ccc(NC(=O)c3cccc(C)c3-c3ccc(C(F)(F)F)cc3)cc2C1` [Example 82]: the IC50 was 1510 nM in assay [1] (setting [2]) and 9030 nM in assay [1] (setting [3]).
The like results for `CCOC(=O)NC1Cc2ccc(NC(=O)c3cccc(OC)c3-c3ccc(C(F)(F)F)cc3)cc2C1` (stereo not shown) [Example 83] were, in that order, 715 nM and 9730 nM.
`Cc1cccc(C(=O)Nc2ccc3c(c2)CC(NS(=O)(=O)c2ccc(Cl)s2)C3)c1-c1ccc(C(F)(F)F)cc1` (stereo not shown) [Example 85] came in with an IC50 at Smoothened of 12 nM.
For `CCCCS(=O)(=O)NC1Cc2ccc(NC(=O)c3cccc(C)c3-c3ccc(C(F)(F)F)cc3)cc2C1` (stereo not shown) [Example 86], the IC50 on Smoothened is 265 nM.
For the molecule `O=C(Nc1ccc2c(c1)CC(NS(=O)(=O)NC1CCCCC1)C2)c1ccccc1-c1ccc(C(F)(F)F)cc1` (stereo not shown) [Example 87], the IC50 in assay [1] (setting [2]) is 2070 nM; in assay [1] (setting [3]) it was 2580 nM.
As for `O=C(Nc1ccc2c(c1)C[C@H](NS(=O)(=O)c1ccccc1)C2)c1ccccc1-c1ccc(C(F)(F)F)cc1` [Example 89], in assay [1] (setting [2]), the IC50 is 202 nM.
For `O=C(Nc1ccc2c(c1)CC(NS(=O)(=O)c1cccs1)C2)c1ccc(F)cc1-c1ccc(C(F)(F)F)cc1` (stereo not shown) [Example 90], the IC50 in assay [1] (setting [2]) turned out to be 5440 nM.
With `O=C(Nc1ccc2c(c1)CC(NS(=O)(=O)c1cccs1)C2)c1cccc(F)c1-c1ccc(C(F)(F)F)cc1` (stereo not shown) [Example 91], the figures for the IC50 in assay [1] (setting [2]) and in assay [1] (setting [3]) were 59 nM and 16300 nM, respectively.
For the molecule `CCCS(=O)(=O)NC1Cc2ccc(NC(=O)c3cccc(C)c3-c3ccc(C(F)(F)F)cc3)cc2C1` (stereo not shown) [Example 93], in assay [1] (setting [2]), the IC50 was 3390 nM.
Consider `Cc1cccc(C(=O)Nc2ccc3c(c2)CC(NS(=O)(=O)c2cccs2)C3)c1-c1ccc(F)cc1` (stereo not shown) [Example 94], for which the IC50 in assay [1] (setting [2]) was determined as 6630 nM.
Consider `Cc1cccc(C(=O)Nc2ccc3c(c2)CC(NS(=O)(=O)c2cccs2)C3)c1-c1ccc(C(F)(F)F)cc1` (stereo not shown) [Example 95], for which the IC50 in assay [1] (setting [2]) is 1420 nM.
With `O=C(Nc1ccc2c(c1)CC(NS(=O)(=O)c1ccccc1)C2)c1ccccc1-c1ccc(Cl)cc1` (stereo not shown) [Example 96], the IC50 in assay [1] (setting [2]) was found to be 1480 nM.
On the same count and under the same terms, next, `O=C(Nc1ccc2c(c1)CC(NS(=O)(=O)c1cccs1)C2)c1c(F)cccc1-c1ccc(C(F)(F)F)cc1` (stereo not shown) [Example 97]: 1360 nM.
With `Cc1cccc(C(=O)Nc2ccc3c(c2)CC(NS(=O)(=O)c2ccc(Cl)cc2)C3)c1-c1ccc(C(F)(F)F)cc1` (stereo not shown) [Example 98], the IC50 in assay [1] (setting [2]) was found to be 324 nM; in assay [1] (setting [3]) it was 24400 nM.
As to `O=C(Nc1ccc2c(c1)CC(NS(=O)(=O)c1ccc(F)cc1)C2)c1ccccc1-c1ccc(C(F)(F)F)cc1` (stereo not shown) [Example 99], in assay [1] (setting [2]), the IC50 was determined as 1050 nM.
Consider `Cc1cccc(C(=O)Nc2ccc3c(c2)C[C@@H](NS(=O)(=O)c2ccccn2)C3)c1-c1ccc(C(F)(F)F)cc1` [Example 101], for which the IC50 was 904 nM in assay [1] (setting [2]) and 14100 nM in assay [1] (setting [3]).

One may read the IC50 as the concentration at which inhibition is half-maximal.

The values above are taken from US20090306149A1, “USE OF BIARYLCARBOXAMIES IN THE TREATMENT OF HEDGEHOG PATHWAY-RELATED DISORDERS” (priority 2006, published 2009).
